Measurements from US8420606B2, “Method of utilizing physiological activity of rare saccharide and composition containing rare saccharide” (priority 2002, dated 2013).
“Also recorded” adds a separate entry of the source.

What was measured:
[1] = tested on: ovary cancer cells (OVCAR3); assay: proliferation of cultured cells, MTT method, OVCAR3; assay type: cell-based; conditions: for proliferation of OVCAR3 cells (cell number over time): saccharide 50 mM, 4 to 5 days, MTT
Procedure: Various kinds of rare saccharides were added at a concentration of 50 mM to culture media under the following conditions, and an influence of each rare saccharide upon the progress of proliferation of cancer cell strains was examined.
(1) Target cells to which the rare saccharides were added: Hepatic cancer cells (HepG2), uterine cancer cells (He1a), ovary cancer cells (OVCAR3), and skin keratinocyte (HaCaT) were selected as target cells to which the rare saccharides were added.
(2) Rare saccharides added: In addition to D-allose, glucose and D-altros as rare saccharides belonging to ketose were added, as other comparative saccharides, to the addition target cells. Also, D-fructose was employed as a control.
(3) Experiment method: A number 3,000-5,000 of addition target cells per type were inoculated into a multi-well plastic dish (hereinafter referred to as a “well”) having 96 wells, and were cultured for 4 to 5 days in a culture medium supplemented with 5 to 10% of Fetal Bovine Serum (FBS) depending on the cell types. D-Allose, D-glucose and D-altros were each added at concentration of 50 mM to the addition target cells per type. Similarly, D-fructose as a control was added at a concentration of 50 mM. To examine the influence upon the cell proliferation, the cell number was measured in units of 24 hours by using the MTT method described below.
(1) Preparation of reagents: A predetermined amount of MTT (tetrazolium salt) was dissolved in PBS(−) sterilized in an autoclave to obtain an MTT solution through filtering and sterilization. An acidic solution was prepared by adding 50 mL of N,N-dimethylformaldehyde and water to a predetermined amount of (20 g) of SDS, thereby obtaining a 100 mL of solution. About […] of 1N hydrochloric acid was added to the solution for adjustment of a pH-value to 4.7. The solution was preserved at room temperature and warmed up to 37° C. just before the use.
(2) Test method: The cells were treated with TEP to prepare a cell suspension liquid. This cell suspension liquid was pipetted in a predetermined cell-density (300 to 52000 cells/well) to each well (96-well plate: 0.1 mL of culture medium per well). The saccharide as a drug was added in a predetermined amount to each well, followed by cultivation for a whole day and night in a CO2 incubator. Then, 0.5 mg/mL of the MTT solution was added and the resulting culture was incubated for 4 hours in the incubator. Thereafter, the culture medium was completely removed. Then, in a room kept at 37° C., an acid solution was added in amount of 0.1 mL/well. The well plate was placed on a micro-plate mixer and shaken at 37° C. for 20 minutes to dissolve a colored substance (namely, to dissolve “formazan” in the acid solution). The absorbance of the liquid was measured at a wavelength of 570 to 600 nm by using a spectrophotometer. After dissolving the colored substance (formazan) in the acid solution, the absorbance can be measured directly by a plate reader.
(1) Experiment method: The ovary cancer cells (OVCAR3) were selected as target cells to which a rare saccharide was added, and D-allose as the saccharide was added at concentrations of 1 mM, 5 mM, 10 mM, 20 mM, 50 mM and 100 mM. The experimental conditions, such as the method of culturing the ovary cancer cells (OVCAR3) and the method of measuring the cell number (MTT method), were the same as those in Example 1.

HL-60 = assay: blood-system cancer cell strain proliferation, Coulter Counter, HL60; assay type: cell-based; conditions: for HL60 cell number relative to glucose: seventh day, glucose = 100%; for HL60 proliferation inhibitory effect: 0.05-50 mM, 7 days, D-glucose control
Procedure: (§1) (2) Method: Total 6 kinds of cell strains, i.e., Myeloid (HL-60, THP-1, KG-1), T-cell (MT-2), and B-Cell (Daudi, KS-1), and 3 kinds of rare saccharides (i.e., D-psicose, D-altrose, and D-allose), were employed. The culture medium and the cells were prepared to be 1 mL in total and 1×10^5 in number, respectively. Then, the cell number at each of fourth day and seventh day was counted by using a Coulter Counter. Each rare saccharide was added at concentrations of 0.05, 0.5, 5 and 50 mM, while D-glucose was used as a control.
(§2) Culture Medium: FBS 10% added RPMI1460
(§3) Cultivation Conditions: 37° C., 5% CO2
(§4) Cultivation Vessel: FALCON, MULTIWELL, 12 wells
(§5) Number of Cultivation Days: 7 days
(§6) Saccharides Concentration: 0.05, 0.5, 5, 50 mM

hippocampus neurons = assay: temporary brain ischemia, survival of hippocampus neurons; assay type: in vivo, gerbil; conditions: for necrosis of hippocampus neurons caused by ischemia: 200 mg/kg before ischemia, 5 minutes ischemia, after 1 week
Procedure: (2) Method: The bilateral common carotid artery of a gerbil was shut off for 5 minutes. After 1 week, the gerbil was sacrificed and a sample was prepared in accordance with the ordinary method, followed by hematoxyline eosin dyeing. The survival rate was measured by counting the number of hippocampus neurons while looking at them under a microscope. Experiments were performed on a normal control group, a group subjected to only ischemia, and a group administrated with 200 mg/kg of D-allose or D-psicose before ischemia. It is known that glutamates released in large amount from the neurons with ischemia are toxic to the neurons. Such a point was examined by fixing the gerbil to a brain position fixing device, perfusing a solution, in which oxidase glutamate is dissolved, to the hippocampus through a probe for micro-dialysis, and measuring the glutamate concentration outside the hippocampus neurons. Also, the inventors have clarified the relationship between the metabolism of glucose and the action mechanism of D-allose with ischemia by pre-administrating D-allose and 2-deoxiglucose.

Daudi = assay: blood-system cancer cell strain proliferation, Coulter Counter, Daudi; assay type: cell-based; conditions: for Daudi cell number relative to glucose: seventh day, glucose = 100%; for Daudi-cell proliferation inhibitory effect: 0.05-50 mM, 7 days, D-glucose control
Procedure: as §1, §2, §3, §4, §5, §6

SMILES: O=C[C@H](O)[C@H](O)[C@H](O)[C@H](O)CO [D-allose]
- concentration at which the cancer-cell proliferation inhibitory effect was first found ([1]; OVCAR3, 1, 5, 10, 20, 50, 100 mM tested, 10% fetal bovine serum): 10 mM
- dead cells (microscope, trypan blue-exclusion assay) ([1]; OVCAR3 cells to which D-allose was applied): dead cells hardly existed
- proliferation of OVCAR3 cells (cell number over time) [1]: strongly inhibited proliferation; also recorded: has a proliferation inhibitory effect
- HL60 cell number relative to glucose (HL-60; 0.05 mM): 62.6%
- HL60 cell number relative to glucose (HL-60; 0.5 mM): 67.7%
- HL60 cell number relative to glucose (HL-60; 5 mM): 41.5%
- HL60 proliferation inhibitory effect (HL-60): having the inhibitory effect
- HL60 proliferation inhibitory effect (HL-60; listed as allose): showed an inhibitory effect
- HL60 cell number relative to glucose (HL-60; 50 mM): 30.7%
- necrosis of hippocampus neurons caused by ischemia (hippocampus neurons): significantly inhibited necrosis
- hippocampus neurons alive after ischemia (hippocampus neurons; ischemia for 5 minutes, rat brains as printed, solution containing D-allose perfused before the ischemia, 80% died without): 70%
- Daudi cell number relative to glucose (Daudi; 0.05 mM): 85.9%
- Daudi cell number relative to glucose (Daudi; 0.5 mM): 80.6%
- Daudi cell number relative to glucose (Daudi; 5 mM): 62.2%
- Daudi-cell proliferation inhibitory effect (Daudi): having the inhibitory effect
- Daudi-cell proliferation inhibitory effect (Daudi; listed as allose): showed an inhibitory effect
- Daudi cell number relative to glucose (Daudi; 50 mM): 3.9%

SMILES: O=C[C@H](O)[C@@H](O)[C@H](O)[C@H](O)CO [D-glucose, reference compound]
- proliferation of OVCAR3 cells (cell number over time) [1]: acted so as to promote the proliferation of the cancer cells

SMILES: O=C(CO)[C@H](O)[C@H](O)[C@H](O)CO [D-psicose]
- HL60 cell number relative to glucose (HL-60; 0.05 mM): 84.7%
- HL60 cell number relative to glucose (HL-60; 0.5 mM): 80.7%
- HL60 cell number relative to glucose (HL-60; 5 mM): 84.2%
- HL60 proliferation inhibitory effect (HL-60): showed an inhibitory effect
- HL60 cell number relative to glucose (HL-60; 50 mM): 93.6%
- necrosis of hippocampus neurons caused by ischemia (hippocampus neurons): not found; also recorded: not confirmed
- Daudi-cell proliferation inhibitory effect (Daudi): showed no effect
